From patent publication US12319672B2, “Alpha-D-galactopyranoside derivatives” (Idorsia Pharmaceuticals Ltd, priority 2019, dated 2025)

Columns and labels:
[1] = target: human Gal-3 (hGal-3) (Homo sapiens (Human), UniProt P17931); assay: Competitive binding assay: binding of biotinylated hGal-3 to microplate-adsorbed asialofetuin (ASF); settings: Activity on hGal-3; mean values of several measurements
Experimental: (§1) Evaluation of Compound Inhibitory Activity (IC50)
(§2) The inhibitory activity of compounds is determined in competitive binding assays. This spectrophotometric assay measures the binding of biotinylated human Gal-3 (hGal-3) or human Gal-1 (hGal-1), respectively, to a microplate-adsorbed glycoprotein, asialofetuin (ASF) (Proc Natl Acad Sci USA. 2013 Mar. 26; 110(13):5052-7.). Alternatively, and preferably, a human Gal-1 version in which all six cysteines are substituted by serines may be used.
(§3) Briefly, compounds are serially diluted in DMSO (working dilutions). ASF-coated 384 well plates are supplemented with 22.8 μL/well of biotinylated hGal-3 or hGal-1 in assay buffer (i.e. 300-1000 ng/mL biotinylated hGal-3 or hGal-1) to which 1.2 μL of compound working dilutions are added and mixed.
(§4) Plates are incubated for 3 hours at 4° C., then washed with cold assay buffer (3×50 uL), incubated for 1 hour with 25 μL/well of a streptavidin-peroxidase solution (diluted in assay buffer to 80 ng/mL) at 4° C., followed by further washing steps with assay buffer (3×50 uL). Finally, 25 μL/well of ABTS substrate is added.
(§5) The calculated IC50 values may fluctuate depending on the daily assay performance. Fluctuations of this kind are known to those skilled in the art. IC50 values from several measurements are given as mean values.

[2] = target: human Gal-1 (hGal-1); assay: Competitive binding assay: binding of biotinylated hGal-1 to microplate-adsorbed asialofetuin (ASF); settings: Activities on hGal-1; mean values of several measurements
human Gal-1 (hGal-1), sequence (P09382 2-135 limits assumed): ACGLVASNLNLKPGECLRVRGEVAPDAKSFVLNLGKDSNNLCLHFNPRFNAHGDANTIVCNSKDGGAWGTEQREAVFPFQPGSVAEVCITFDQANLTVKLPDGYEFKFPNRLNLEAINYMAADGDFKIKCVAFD
Experimental: as §1, §2, §3, §4, §5

human Gal-3 (hGal-3), sequence (P17931 whole entry): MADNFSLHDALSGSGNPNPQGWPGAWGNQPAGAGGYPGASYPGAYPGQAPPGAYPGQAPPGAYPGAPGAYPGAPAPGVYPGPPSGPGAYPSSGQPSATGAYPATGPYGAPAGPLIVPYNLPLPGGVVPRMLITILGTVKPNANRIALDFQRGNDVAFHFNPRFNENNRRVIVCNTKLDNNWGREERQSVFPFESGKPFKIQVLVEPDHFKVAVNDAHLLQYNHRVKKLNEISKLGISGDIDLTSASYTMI

SMILES | IC50 [1] [nM] | IC50 [2] [nM]
COc1ccc(N2CC(C[C@H]3O[C@H](CO)[C@H](O)[C@H](n4cc(-c5cc(F)c(F)c(F)c5)nn4)[C@H]3OC)OC2=O)cc1 (mixture of isomers) [Example 5.01, (RS)-5-(((2R,3R,4S,5R,6R)-5-hydroxy-6-(hydroxymethyl)-3-methoxy-4-(4-(3,4,5-trifluorophenyl)-1H-1,2,3-triazol-1-yl)tetrahydro-2H-pyran-2-yl)methyl)-3-(4-methoxyphenyl)oxazolidin-2-one] | 1570 | 5280
CO[C@@H]1[C@@H](n2cc(-c3cc(F)c(F)c(F)c3)nn2)[C@@H](O)[C@@H](CO)O[C@@H]1CC1CN(c2ccc(OC(F)F)cc2)C(=O)O1 (mixture of isomers) [Example 5.02, (RS)-3-(4-(difluoromethoxy)phenyl)-5-(((2R,3R,4S,5R,6R)-5-hydroxy-6-(hydroxymethyl)-3-methoxy-4-(4-(3,4,5-trifluorophenyl)-1H-1,2,3-triazol-1-yl)tetrahydro-2H-pyran-2-yl)methyl)oxazolidin-2-one] | 1560 | 3550
CO[C@@H]1[C@@H](n2cc(-c3cc(F)c(F)c(F)c3)nn2)[C@@H](O)[C@@H](CO)O[C@@H]1CC1CN(C2CCN(C(C)=O)CC2)C(=O)O1 (mixture of isomers) [Example 5.03, (RS)-3-(1-acetylpiperidin-4-yl)-5-(((2R,3R,4S,5R,6R)-5-hydroxy-6-(hydroxymethyl)-3-methoxy-4-(4-(3,4,5-trifluorophenyl)-1H-1,2,3-triazol-1-yl)tetrahydro-2H-pyran-2-yl)methyl)oxazolidin-2-one] | 120 | 650
CO[C@@H]1[C@@H](n2cc(-c3cc(F)c(F)c(F)c3)nn2)[C@@H](O)[C@@H](CO)O[C@@H]1CC1CN(C2CCN(S(C)(=O)=O)CC2)C(=O)O1 (mixture of isomers) [Example 5.04, (RS)-5-(((2R,3R,4S,5R,6R)-5-hydroxy-6-(hydroxymethyl)-3-methoxy-4-(4-(3,4,5-trifluorophenyl)-1H-1,2,3-triazol-1-yl)tetrahydro-2H-pyran-2-yl)methyl)-3-(1-(methylsulfonyl)piperidin-4-yl)oxazolidin-2-one] | 180 | 790
CO[C@@H]1[C@@H](n2cc(-c3cc(F)c(F)c(F)c3)nn2)[C@@H](O)[C@@H](CO)O[C@@H]1CC1CN(C2CCN(C(=O)OC(C)(C)C)CC2)C(=O)O1 (mixture of isomers) [Example 5.09, tert-butyl 4-((RS)-5-(((2R,3R,4S,5R,6R)-5-hydroxy-6-(hydroxymethyl)-3-methoxy-4-(4-(3,4,5-trifluorophenyl)-1H-1,2,3-triazol-1-yl)tetrahydro-2H-pyran-2-yl)methyl)-2-oxooxazolidin-3-yl)piperidine-1-carboxylate] | 83 | 460
CO[C@@H]1[C@@H](n2cc(-c3cc(F)c(F)c(F)c3)nn2)[C@@H](O)[C@@H](CO)O[C@@H]1CC1CN(C2CCN(C(=O)C(C)C)CC2)C(=O)O1 (mixture of isomers) [Example 5.10, (RS)-5-(((2R,3R,4S,5R,6R)-5-hydroxy-6-(hydroxymethyl)-3-methoxy-4-(4-(3,4,5-trifluorophenyl)-1H-1,2,3-triazol-1-yl)tetrahydro-2H-pyran-2-yl)methyl)-3-(1-isobutyrylpiperidin-4-yl)oxazolidin-2-one] | 190 | 280
CO[C@@H]1[C@@H](n2cc(-c3cc(F)c(F)c(F)c3)nn2)[C@@H](O)[C@@H](CO)O[C@@H]1CC1CN(C2CCN(C(=O)N(C)C)CC2)C(=O)O1 (mixture of isomers) [Example 5.11, 4-((RS)-5-(((2R,3R,4S,5R,6R)-5-hydroxy-6-(hydroxymethyl)-3-methoxy-4-(4-(3,4,5-trifluorophenyl)-1H-1,2,3-triazol-1-yl)tetrahydro-2H-pyran-2-yl)methyl)-2-oxooxazolidin-3-yl)-N,N-dimethylpiperidine-1-carboxamide] | 260 | 1500
CO[C@@H]1[C@@H](n2cc(-c3cc(F)c(F)c(F)c3)nn2)[C@@H](O)[C@@H](CO)O[C@@H]1CC1CN(CC2CCN(C(=O)OC(C)(C)C)CC2)C(=O)O1 (mixture of isomers) [Example 5.16, tert-butyl 4-(((RS)-5-(((2R,3R,4S,5R,6R)-5-hydroxy-6-(hydroxymethyl)-3-methoxy-4-(4-(3,4,5-trifluorophenyl)-1H-1,2,3-triazol-1-yl)tetrahydro-2H-pyran-2-yl)methyl)-2-oxooxazolidin-3-yl)methyl)piperidine-1-carboxylate] | 630 | 42100
CO[C@@H]1[C@@H](n2cc(-c3cc(F)c(F)c(F)c3)nn2)[C@@H](O)[C@@H](CO)O[C@@H]1CC1CN(C2CCOCC2)C(=O)O1 (mixture of isomers) [Example 5.17, (RS)-5-(((2R,3R,4S,5R,6R)-5-hydroxy-6-(hydroxymethyl)-3-methoxy-4-(4-(3,4,5-trifluorophenyl)-1H-1,2,3-triazol-1-yl)tetrahydro-2H-pyran-2-yl)methyl)-3-(tetrahydro-2H-pyran-4-yl)oxazolidin-2-one] | 190 | 9070
CO[C@@H]1[C@@H](n2cc(-c3cc(F)c(F)c(F)c3)nn2)[C@@H](O)[C@@H](CO)O[C@@H]1CC1CN(C2CCN(S(=O)(=O)CC(C)C)CC2)C(=O)O1 (mixture of isomers) [Example 5.18, (RS)-5-(((2R,3R,4S,5R,6R)-5-hydroxy-6-(hydroxymethyl)-3-methoxy-4-(4-(3,4,5-trifluorophenyl)-1H-1,2,3-triazol-1-yl)tetrahydro-2H-pyran-2-yl)methyl)-3-(1-(isobutylsulfonyl)piperidin-4-yl)oxazolidin-2-one] | 35 | 640
CO[C@@H]1[C@@H](n2cc(-c3cc(F)c(F)c(F)c3)nn2)[C@@H](O)[C@@H](CO)O[C@@H]1CC1CN(C2CCN(C(=O)CC(C)(C)C)CC2)C(=O)O1 (mixture of isomers) [Example 5.19, (RS)-3-(1-(3,3-dimethylbutanoyl)piperidin-4-yl)-5-(((2R,3R,4S,5R,6R)-5-hydroxy-6-(hydroxymethyl)-3-methoxy-4-(4-(3,4,5-trifluorophenyl)-1H-1,2,3-triazol-1-yl)tetrahydro-2H-pyran-2-yl)methyl)oxazolidin-2-one] | 100 | 1370
CO[C@@H]1[C@@H](n2cc(-c3cc(F)c(F)c(F)c3)nn2)[C@@H](O)[C@@H](CO)O[C@@H]1CC1CN(C2CCN(S(=O)(=O)C(F)(F)F)CC2)C(=O)O1 (mixture of isomers) [Example 5.20, (RS)-5-(((2R,3R,4S,5R,6R)-5-hydroxy-6-(hydroxymethyl)-3-methoxy-4-(4-(3,4,5-trifluorophenyl)-1H-1,2,3-triazol-1-yl)tetrahydro-2H-pyran-2-yl)methyl)-3-(1-((trifluoromethyl)sulfonyl)piperidin-4-yl)oxazolidin-2-one] | 140 | 2310
CO[C@@H]1[C@@H](n2cc(-c3cc(F)c(F)c(F)c3)nn2)[C@@H](O)[C@@H](CO)O[C@@H]1C[C@@H]1CN(C2CCN([S@+]([O-])C(C)(C)C)CC2)C(=O)O1 (mixture of isomers) [Example 5.21, (RS)-3-((RS)-1-(tert-butylsulfinyl)piperidin-4-yl)-5-(((2R,3R,4S,5R,6R)-5-hydroxy-6-(hydroxymethyl)-3-methoxy-4-(4-(3,4,5-trifluorophenyl)-1H-1,2,3-triazol-1-yl)tetrahydro-2H-pyran-2-yl)methyl)oxazolidin-2-one] | 350 | 8680
CO[C@@H]1[C@@H](n2cc(-c3cc(F)c(F)c(F)c3)nn2)[C@@H](O)[C@@H](CO)O[C@@H]1CC1CN(C2CCN(S(=O)(=O)C(C)(C)C)CC2)C(=O)O1 (mixture of isomers) [Example 5.22, (RS)-3-(1-(tert-butylsulfonyl)piperidin-4-yl)-5-(((2R,3R,4S,5R,6R)-5-hydroxy-6-(hydroxymethyl)-3-methoxy-4-(4-(3,4,5-trifluorophenyl)-1H-1,2,3-triazol-1-yl)tetrahydro-2H-pyran-2-yl)methyl)oxazolidin-2-one] | 67 | 760
CO[C@@H]1[C@@H](n2cc(-c3cc(F)c(F)c(F)c3)nn2)[C@@H](O)[C@@H](CO)O[C@@H]1CC1CN(C2CCCCC2)C(=O)O1 (mixture of isomers) [Example 5.23, (RS)-3-cyclohexyl-5-(((2R,3R,4S,5R,6R)-5-hydroxy-6-(hydroxymethyl)-3-methoxy-4-(4-(3,4,5-trifluorophenyl)-1H-1,2,3-triazol-1-yl)tetrahydro-2H-pyran-2-yl)methyl)oxazolidin-2-one] | 140 | 6740
CO[C@@H]1[C@@H](n2cc(-c3cc(F)c(F)c(F)c3)nn2)[C@@H](O)[C@@H](CO)O[C@@H]1CN1CC(C2CCN(C(=O)OC(C)(C)C)CC2)OC1=O (mixture of isomers) [Example 5.24, tert-butyl 4-((RS)-3-(((2R,3R,4S,5R,6R)-5-hydroxy-6-(hydroxymethyl)-3-methoxy-4-(4-(3,4,5-trifluorophenyl)-1H-1,2,3-triazol-1-yl)tetrahydro-2H-pyran-2-yl)methyl)-2-oxooxazolidin-5-yl)piperidine-1-carboxylate] | 290 | 1810
